# pIC50: −log10 of the molar value.
# Target: T1, KCNT1 (KNa1.1, Slack) (Homo sapiens, UniProt Q5JUK3)
# T1 construct: expressed in transfected cells; host or cells: HEK-TREX (tetracycline-inducible HEK cell line)
# T1 sequence (Q5JUK3 1-1230): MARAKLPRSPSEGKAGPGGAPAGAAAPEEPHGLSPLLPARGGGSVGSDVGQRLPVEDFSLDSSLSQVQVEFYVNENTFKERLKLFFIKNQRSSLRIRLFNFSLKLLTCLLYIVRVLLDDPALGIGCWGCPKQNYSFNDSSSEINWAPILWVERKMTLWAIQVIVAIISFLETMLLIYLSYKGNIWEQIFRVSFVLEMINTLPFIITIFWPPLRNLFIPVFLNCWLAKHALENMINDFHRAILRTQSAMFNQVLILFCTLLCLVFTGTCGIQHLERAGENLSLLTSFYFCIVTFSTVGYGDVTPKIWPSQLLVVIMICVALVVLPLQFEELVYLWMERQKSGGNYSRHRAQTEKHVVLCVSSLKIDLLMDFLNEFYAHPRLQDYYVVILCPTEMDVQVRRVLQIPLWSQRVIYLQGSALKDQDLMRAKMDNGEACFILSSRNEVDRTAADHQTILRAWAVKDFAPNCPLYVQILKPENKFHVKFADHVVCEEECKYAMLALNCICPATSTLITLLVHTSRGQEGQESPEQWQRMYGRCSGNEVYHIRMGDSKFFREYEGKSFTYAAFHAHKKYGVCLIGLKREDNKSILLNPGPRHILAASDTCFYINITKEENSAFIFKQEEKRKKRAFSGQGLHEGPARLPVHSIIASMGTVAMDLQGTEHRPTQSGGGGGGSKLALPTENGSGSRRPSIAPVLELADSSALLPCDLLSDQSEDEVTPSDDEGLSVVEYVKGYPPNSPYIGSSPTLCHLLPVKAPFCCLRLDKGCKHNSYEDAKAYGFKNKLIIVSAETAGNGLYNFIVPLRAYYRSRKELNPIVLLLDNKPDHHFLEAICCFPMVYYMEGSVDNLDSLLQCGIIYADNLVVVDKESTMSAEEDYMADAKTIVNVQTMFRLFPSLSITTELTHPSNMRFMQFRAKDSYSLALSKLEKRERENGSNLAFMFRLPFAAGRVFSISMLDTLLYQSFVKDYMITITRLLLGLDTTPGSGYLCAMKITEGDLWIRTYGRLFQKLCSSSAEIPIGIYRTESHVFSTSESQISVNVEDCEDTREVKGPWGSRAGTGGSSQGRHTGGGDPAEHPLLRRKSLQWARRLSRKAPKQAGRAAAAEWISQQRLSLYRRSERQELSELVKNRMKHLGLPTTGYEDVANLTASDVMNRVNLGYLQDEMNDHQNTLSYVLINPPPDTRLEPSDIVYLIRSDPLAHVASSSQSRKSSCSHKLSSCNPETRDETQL
# Assay: KCNT1-WT-Basal patch clamp assay (SyncroPatch 384PE, HEK-TREX inducible cell line)
# Type: cell-based
# Conditions: tetracycline inducible HEK-TREX cells; perforated patch; holding -80 mV, 100 ms step to 0 mV; room temperature; read-out: KCNT1 WB IC50
# Method: KCNT1-WT-Basal—Patch Clamp Assay
# Inhibition of KCNT1 (KNa1.1, Slack) was evaluated using a tetracycline inducible cell line (HEK-TREX). Currents were recorded using the SyncroPatch 384PE automated, patch clamp system. Pulse generation and data collection were performed with PatchController384 V1.3.0 and DataController384 V1.2.1 (Nanion Technologies). The access resistance and apparent membrane capacitance were estimated using built-in protocols. Current were recorded in perforated patch mode (10 μM escin) from a population of cells. The cells were lifted, triturated, and resuspended at 800,000 cells/ml. The cells were allowed to recover in the cell hotel prior to experimentation. Currents were recorded at room temperature. The external solution contained the following (in mM): NaCl 105, NMDG 40, KCl 4, MgCl2 1, CaCl2 5 and HEPES 10 (pH=7.4, Osmolarity ˜300 mOsm). The extracellular solution was used as the wash, reference and compound delivery solution. The internal solution contained the following (in mM): NaCl 70, KF 70, KCl 10, EGTA 5, HEPES 5 and Escin 0.01 (pH=7.2, Osmolarity ˜295 mOsm). Escin is made at a 5 mM stock in water, aliquoted, and stored at −20° C. The compound plate was created at 2× concentrated in the extracellular solution. The compound was diluted to 1:2 when added to the recording well. The amount of DMSO in the extracellular solution was held constant at the level used for the highest tested concentration. A holding potential of −80 mV with a 100 ms step to 0 mV was used. Mean current was measured during the step to 0 mV. […] The average mean current from 3 sweeps was calculated and the % inhibition of each compound was calculated. The % Inhibition as a function of the compound concentration was fit with a Hill equation to derive IC50, slope, min and max parameters. If KCNT1 inhibition was less than 50% at the highest tested concentration or if an IC50 could not be calculated, then a percent inhibition was reported in place of the IC50.
row,pIC50,SMILES
1,≥ 6.00,"CNS(=O)(=O)c1ccc(C(=O)N[C@H]2CCCc3cc(Cl)ccc32)s1 (single isomer, unassigned) [Compound I-22]"
2,4.70 to 6.00,"CNS(=O)(=O)c1ccc(C(=O)N[C@@H]2CCCc3cc(Cl)ccc32)s1 (single isomer, unassigned) [Compound I-23]"
3,≥ 6.00,"NC(=O)c1ccc(C(=O)N[C@@H]2CCCc3cc(Cl)ccc32)s1 (single isomer, unassigned) [Compound I-31]"
4,≥ 6.00,"NS(=O)(=O)c1ccc(C(=O)N[C@H]2CCCc3cc(Cl)ccc32)s1 (single isomer, unassigned) [Compound I-32]"
5,≤ 4.70,"CN(c1ccc(C(=O)NC2CCc3cc(Cl)ccc32)cc1)S(C)(=O)=O (single isomer, unassigned) [Compound II-1, N-(5-chloroindan-1-yl)-4-[methyl(methylsulfonyl)amino]benzamide]"
6,≤ 4.70,"CS(=O)(=O)Cc1ccc(C(=O)NC2CCc3cc(Cl)ccc32)cc1 (single isomer, unassigned) [Compound II-5, N-(5-chloroindan-1-yl)-4-(methylsulfonylmethyl)benzamide]"
7,4.70 to 6.00,"CS(=O)(=O)Cc1ccc(C(=O)NC2CCc3cc(Cl)ccc32)cc1 (single isomer, unassigned) [Compound II-6, N-(5-chloroindan-1-yl)-4-(methylsulfonylmethyl)benzamide]"
8,4.70 to 6.00,"COc1ccc(C(=O)NC2CCc3cc(Cl)ccc32)cc1 (single isomer, unassigned) [Compound II-8, N-(5-chloroindan-1-yl)-4-methoxy-benzamide]"
9,≤ 4.70,"O=C(N[C@@H]1CCc2cc(Cl)ccc21)c1ccc(F)cc1 (single isomer, unassigned) [Compound II-31]"
10,≤ 4.70,"O=C(N[C@H]1CCc2cc(Cl)ccc21)c1ccc(F)cc1 (single isomer, unassigned) [Compound II-41]"
11,< 4.70,"CS(=O)(=O)Nc1ccc(C(=O)NC2CCc3cc(C(F)(F)F)ccc32)cc1 (single isomer, unassigned) [Compound II-58, 4-(methanesulfonamido)-N-[5-(trifluoromethyl)indan-1-yl]benzamide]"
12,< 4.70,"CS(=O)(=O)Nc1ccc(C(=O)NC2CCc3cc(F)ccc32)cc1 (single isomer, unassigned) [Compound II-59, N-[5-fluoroindan-1-yl]-4-(methanesulfonamido)benzamide]"
13,≥ 6.00,"COc1ccc(C(=O)NC2CCc3cc(Cl)ccc32)c(O)c1 (single isomer, unassigned) [Compound III-2, N-(5-chloroindan-1-yl)-2-hydroxy-4-methoxy-benzamide]"
14,4.70 to 6.00,Cn1nc(C(=O)N[C@@H]2CCc3cc(Cl)ccc32)cc1C1CC1 [Compound I-1]
15,4.70 to 6.00,NS(=O)(=O)c1ccc(C(=O)N[C@@H]2CCc3cc(Cl)ccc32)o1 [Compound I-3]
16,≥ 6.00,NS(=O)(=O)c1ccc(C(=O)N[C@@H]2CCc3cc(Cl)ccc32)s1 [Compound I-4]
17,≤ 4.70,Cn1cc(S(N)(=O)=O)cc1C(=O)N[C@@H]1CCc2cc(Cl)ccc21 [Compound I-7]
18,4.70 to 6.00,Cc1sc(C(=O)N[C@@H]2CCc3cc(Cl)ccc32)cc1S(N)(=O)=O [Compound I-8]
19,4.70 to 6.00,Cc1oc(C(=O)N[C@@H]2CCc3cc(Cl)ccc32)cc1S(N)(=O)=O [Compound I-9]
20,≤ 4.70,Cc1oc(S(N)(=O)=O)cc1C(=O)N[C@@H]1CCc2cc(Cl)ccc21 [Compound I-11]
21,≤ 4.70,Cc1cc(S(N)(=O)=O)oc1C(=O)N[C@@H]1CCc2cc(Cl)ccc21 [Compound I-12]
22,≤ 4.70,Cn1c(C(=O)N[C@@H]2CCc3cc(Cl)ccc32)ccc1S(N)(=O)=O [Compound I-13]

# More lines, now with the values behind:
row,SMILES,pIC50
1,"CS(=O)(=O)c1ccc(C(=O)N[C@H]2CCCc3cc(Cl)ccc32)s1 (single isomer, unassigned) [Compound I-24]",≥ 6.00
2,"CS(=O)(=O)c1ccc(C(=O)N[C@@H]2CCCc3cc(Cl)ccc32)s1 (single isomer, unassigned) [Compound I-25]",≤ 4.70
3,"NC(=O)c1ccc(C(=O)N[C@H]2CCCc3cc(Cl)ccc32)s1 (single isomer, unassigned) [Compound I-30]",≤ 4.70
4,"NS(=O)(=O)c1ccc(C(=O)N[C@@H]2CCCc3cc(Cl)ccc32)s1 (single isomer, unassigned) [Compound I-33]",≤ 4.70
5,"CN(c1ccc(C(=O)NC2CCc3cc(Cl)ccc32)cc1)S(C)(=O)=O (single isomer, unassigned) [Compound II-2, N-(5-chloroindan-1-yl)-4-[methyl(methylsulfonyl)amino]benzamide]",≥ 6.00
6,"COc1ccc(C(=O)NC2CCc3cc(Cl)ccc32)cc1 (single isomer, unassigned) [Compound II-7, N-(5-chloroindan-1-yl)-4-methoxy-benzamide]",≤ 4.70
7,"Nc1ccc(C(=O)N[C@H]2CCc3cc(Cl)ccc32)cc1 (single isomer, unassigned) [Compound II-16]",≤ 4.70
8,"CS(=O)(=O)Nc1ccc(C(=O)NC2CCCc3cc(Cl)ccc32)cc1 (single isomer, unassigned) [Compound II-52, N-(6-chlorotetralin-1-yl)-4-(methanesulfonamido)benzamide]",≤ 4.70
9,"CS(=O)(=O)Nc1ccc(C(=O)NC2CCCc3cc(Cl)ccc32)cc1 (single isomer, unassigned) [Compound II-53, N-(6-chlorotetralin-1-yl)-4-(methanesulfonamido)benzamide]",≥ 6.00
10,"CS(=O)(=O)c1ccc(C(=O)N[C@H]2CCCc3cc(Cl)ccc32)cc1 (single isomer, unassigned) [Compound II-55]",4.70 to 6.00
11,"CS(=O)(=O)Nc1ccc(C(=O)NC2CCc3cc(C(F)(F)F)ccc32)cc1 (single isomer, unassigned) [Compound II-56, 4-(methanesulfonamido)-N-[5-(trifluoromethyl)indan-1-yl]benzamide]",≥ 6.00
12,"CS(=O)(=O)Nc1ccc(C(=O)NC2CCc3cc(F)ccc32)cc1 (single isomer, unassigned) [Compound II-57, N-[5-fluoroindan-1-yl]-4-(methanesulfonamido)benzamide]",4.70 to 6.00
13,"COc1ccc(C(=O)NC2CCc3cc(Cl)ccc32)c(O)c1 (single isomer, unassigned) [Compound III-1, N-(5-chloroindan-1-yl)-2-hydroxy-4-methoxy-benzamide]",< 4.70
14,Cn1nc(C2CC2)cc1C(=O)N[C@@H]1CCc2cc(Cl)ccc21 [Compound I-2],4.70 to 6.00
15,NS(=O)(=O)c1csc(C(=O)N[C@@H]2CCc3cc(Cl)ccc32)c1 [Compound I-5],4.70 to 6.00
16,NS(=O)(=O)c1cc(C(=O)N[C@@H]2CCc3cc(Cl)ccc32)cs1 [Compound I-6],≥ 6.00
17,Cc1cc(S(N)(=O)=O)sc1C(=O)N[C@@H]1CCc2cc(Cl)ccc21 [Compound I-10],4.70 to 6.00

# Reference: US20220280476A1, “KCNT1 INHIBITORS AND METHODS OF USE” (Praxis Precision Medicines, Inc., priority 2019, published 2022)
